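Test compounds were applied to cells in 96-well plates for 48 hours at 5 doses. Abbreviation: GI50, concentration required for 50% inhibition of growth. Definition used: TGI = concentration required for complete inhibition of growth.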
Legend:
Assay in all cases: NCI-60 cell line screen, 48 h
[1] = tested on: SK-MEL-2 melanoma
[2] = tested on: K-562 leukemia
[3] = tested on: HOP-62 NSCLC
[4] = tested on: UO-31 renal
[5] = tested on: SR leukemia
[6] = tested on: RPMI-8226 leukemia
[7] = tested on: T-47D breast
[8] = tested on: EKVX NSCLC
[9] = tested on: KM12 colon
[10] = tested on: M14 melanoma
[11] = tested on: HCT-15 colon
[12] = tested on: SF-295 CNS
[13] = tested on: PC-3 prostate
[14] = tested on: NCI-H226 lung
[15] = tested on: MDA-MB-231 breast
[16] = tested on: CAKI-1 renal
[17] = tested on: SW-620 colon
[18] = tested on: SNB-19 CNS
[19] = tested on: U251 CNS
[20] = tested on: TK-10 renal
[21] = tested on: NCI/ADR-RES ovarian
[22] = tested on: 786-0 renal
[23] = tested on: OVCAR-3 ovarian
[24] = tested on: UACC-62 melanoma
[25] = tested on: OVCAR-5 ovarian
[26] = tested on: HOP-92 NSCLC
[27] = tested on: OVCAR-8 ovarian
[28] = tested on: NCI-H522 lung
[29] = tested on: OVCAR-4 ovarian
[30] = tested on: COLO 205 colon
[31] = tested on: SN12C renal
[32] = tested on: MOLT-4 leukemia
[33] = tested on: SK-MEL-5 melanoma
[34] = tested on: HL-60(TB) leukemia
[35] = tested on: LOX IMVI melanoma
[36] = tested on: HCT-116 colon
[37] = tested on: NCI-H460 lung
[38] = tested on: ACHN renal
[39] = tested on: NCI-H23 lung
[40] = tested on: SNB-75 CNS
[41] = tested on: SK-MEL-28 melanoma
[42] = tested on: BT-549 breast
[43] = tested on: MCF7 breast
[44] = tested on: SF-268 CNS
[45] = tested on: A498 renal
[46] = tested on: HT29 colon
[47] = tested on: UACC-257 melanoma
[48] = tested on: HCC-2998 colon
[49] = tested on: A549 NSCLC
[50] = tested on: SK-OV-3 ovarian
[51] = tested on: DU-145 prostate
[52] = tested on: MDA-MB-435
[53] = tested on: SF-539 CNS
[54] = tested on: IGROV1 ovarian
[55] = tested on: RXF 393 renal
[56] = tested on: CCRF-CEM leukemia
[57] = tested on: MALME-3M melanoma
[58] = tested on: HS 578T breast

Q: Which results are given for `CS(=O)(=O)O[C@H]1C(=O)N(c2cc3c4ccccc4ccc3c3ccccc23)[C@@H]1c1ccccc1`?
A: TGI [1]: > 100 µM; GI50 [2]: 0.731 µM; TGI [2]: > 100 µM; GI50 [3]: 0.388 µM; TGI [3]: > 100 µM; GI50 [4]: 3.44 µM; TGI [4]: > 100 µM; GI50 [5]: 0.355 µM; TGI [5]: > 100 µM; GI50 [6]: 0.844 µM; TGI [6]: > 23.5 µM; GI50 [7]: > 100 µM; TGI [7]: > 100 µM; GI50 [8]: 0.342 µM; TGI [8]: > 100 µM; GI50 [9]: 0.216 µM; TGI [9]: > 100 µM; GI50 [10]: 0.809 µM; TGI [10]: > 100 µM; GI50 [11]: 0.408 µM; TGI [11]: > 100 µM; GI50 [12]: 0.0995 µM; TGI [12]: 0.4 µM; GI50 [13]: 0.561 µM; TGI [13]: > 100 µM; GI50 [14]: > 100 µM; TGI [14]: > 100 µM; GI50 [15]: 0.836 µM; TGI [15]: > 100 µM; GI50 [16]: 0.0747 µM; TGI [16]: 0.83 µM; GI50 [17]: 0.874 µM; TGI [17]: > 100 µM; TGI [18]: > 100 µM; GI50 [19]: 0.457 µM; TGI [19]: > 100 µM; GI50 [20]: 0.616 µM; TGI [20]: > 86.9 µM; GI50 [21]: 0.206 µM; TGI [21]: 0.94 µM; GI50 [22]: 0.287 µM; GI50 [23]: 0.0617 µM; TGI [23]: 0.278 µM; GI50 [24]: 0.24 µM; TGI [24]: > 100 µM; GI50 [25]: 0.574 µM; TGI [26]: > 100 µM; TGI [27]: > 100 µM; GI50 [28]: 1.11 µM; TGI [28]: 5.65 µM; GI50 [29]: > 100 µM; TGI [29]: > 100 µM; GI50 [30]: 0.693 µM; TGI [30]: > 100 µM; GI50 [31]: 0.567 µM; TGI [31]: > 100 µM; GI50 [32]: > 100 µM; TGI [32]: > 100 µM; GI50 [33]: 0.766 µM; TGI [33]: > 33.5 µM; GI50 [34]: 0.532 µM; TGI [34]: > 100 µM; GI50 [35]: 0.526 µM; TGI [35]: > 100 µM; GI50 [36]: 0.313 µM; TGI [36]: > 100 µM; GI50 [37]: 1.59 µM; TGI [37]: > 100 µM; GI50 [38]: 0.332 µM; TGI [38]: > 100 µM; GI50 [39]: 0.753 µM; TGI [39]: > 100 µM; GI50 [40]: 0.656 µM; TGI [40]: > 100 µM; GI50 [41]: > 100 µM; TGI [41]: > 100 µM; GI50 [42]: 0.17 µM; TGI [42]: > 100 µM; GI50 [43]: 4.33 µM; TGI [43]: > 100 µM; GI50 [44]: 0.588 µM; TGI [44]: > 100 µM; GI50 [45]: 0.545 µM; TGI [45]: > 100 µM; GI50 [46]: 0.474 µM; TGI [46]: > 100 µM; GI50 [47]: > 38.1 µM; TGI [47]: > 100 µM; GI50 [48]: 0.439 µM; TGI [48]: 5.64 µM; GI50 [49]: 2.18 µM; TGI [49]: > 100 µM; GI50 [50]: 2.31 µM; TGI [50]: > 100 µM; GI50 [51]: 0.819 µM; TGI [51]: > 100 µM; GI50 [52]: 0.0232 µM; TGI [52]: 0.0923 µM; GI50 [53]: 0.71 µM; TGI [53]: 1.76 µM; GI50 [54]: > 100 µM; TGI [54]: > 100 µM

Q: How did the TGI [1] turn out when `O=[N+]([O-])c1cc(Cl)c(Cl)cc1[N+](=O)[O-]` was run?
A: 4.74 µM

Q: What about the TGI [2] of the same compound?
A: 5.81 µM

Q: And the TGI [3]?
A: 6.49 µM

Q: What about the TGI [4] of the same compound?
A: 3.62 µM

Q: And the TGI [5]?
A: 4.98 µM

Q: And the TGI [6]?
A: 15.2 µM

Q: What about the TGI [7] of the same compound?
A: 6.63 µM

Q: What about the TGI [8] of the same compound?
A: 8.81 µM

Q: What about the TGI [55] of the same compound?
A: 3.48 µM

Q: And the TGI [9]?
A: 13 µM

Q: What about the TGI [10] of the same compound?
A: 8.8 µM

Q: What about the TGI [11] of the same compound?
A: 7.77 µM

Q: What about the TGI [12] of the same compound?
A: 5.23 µM

Q: And the TGI [13]?
A: 3.94 µM

Q: And the TGI [14]?
A: 11 µM

Q: And the TGI [15]?
A: 4.38 µM

Q: What about the TGI [16] of the same compound?
A: 4.28 µM

Q: And the TGI [17]?
A: 7.73 µM

Q: What about the TGI [19] of the same compound?
A: 3.82 µM

Q: And the TGI [20]?
A: 12.3 µM

Q: And the TGI [22]?
A: 6.36 µM

Q: And the TGI [56]?
A: > 100 µM

Q: What about the TGI [23] of the same compound?
A: 3.22 µM

Q: And the TGI [24]?
A: 4.42 µM

Q: What about the TGI [25] of the same compound?
A: 5.21 µM

Q: What about the TGI [27] of the same compound?
A: 5.99 µM

Q: And the TGI [28]?
A: 3.36 µM

Q: And the TGI [29]?
A: 4.63 µM

Q: What about the TGI [30] of the same compound?
A: 26.5 µM

Q: What about the TGI [31] of the same compound?
A: 3.52 µM

Q: What about the TGI [32] of the same compound?
A: 0.797 µM

Q: What about the TGI [33] of the same compound?
A: 29.2 µM

Q: What about the TGI [57] of the same compound?
A: 5.83 µM

Q: What about the TGI [35] of the same compound?
A: 4.74 µM

Q: And the TGI [36]?
A: > 100 µM

Q: What about the TGI [37] of the same compound?
A: 12.3 µM

Q: And the TGI [38]?
A: 6.51 µM

Q: What about the TGI [39] of the same compound?
A: 4.83 µM

Q: And the TGI [40]?
A: 9.32 µM

Q: What about the TGI [41] of the same compound?
A: 6.04 µM

Q: And the TGI [43]?
A: 4.85 µM

Q: And the TGI [44]?
A: 3.66 µM

Q: What about the TGI [58] of the same compound?
A: 72.3 µM

Q: What about the TGI [45] of the same compound?
A: 33 µM

Q: What about the TGI [46] of the same compound?
A: 26.9 µM

Q: And the TGI [47]?
A: 4.1 µM

Q: And the TGI [49]?
A: 4.97 µM

Q: What about the TGI [51] of the same compound?
A: 4.42 µM

Q: What about the TGI [52] of the same compound?
A: 12.8 µM

Q: And the TGI [53]?
A: 4.68 µM

Q: And the TGI [54]?
A: 3.44 µM

From PubChem BioAssay (NCI)
